Converted amounts (≈) assume the structure as drawn. “Also recorded” adds a separate entry of the source.
Columns and labels:
[1] = tested on: Staphylococcus aureus A 2000; test: Agar dilution tests; assay type: cell-based; conditions: A2000, anaerobic culture, read-out: Minimum inhibitory concentration
[2] = tested on: Staphylococcus aureus A 2001; test: Agar dilution tests; assay type: cell-based; conditions: A2001, anaerobic culture, read-out: Minimum inhibitory concentration
[3] = tested on: Diplococcus pneumoniae L54; test: Agar dilution tests; assay type: cell-based; conditions: Streptococcus pneumoniae, anaerobic culture, read-out: Minimum inhibitory concentration
[4] = tested on: Salmonella typhimurium R172; test: Agar dilution tests; assay type: cell-based; conditions: Salmonella enterica, anaerobic culture, read-out: Minimum inhibitory concentration
[5] = tested on: Escherichia coli U20; test: Agar dilution tests; assay type: cell-based; conditions: anaerobic culture, read-out: Minimum inhibitory concentration
[6] = tested on: Listeria monocytogenes A2130; test: Agar dilution tests; assay type: cell-based; conditions: anaerobic culture, read-out: Minimum inhibitory concentration
[7] = tested on: Listeria monocytogenes A2131; test: Agar dilution tests; assay type: cell-based; conditions: anaerobic culture, read-out: Minimum inhibitory concentration
[8] = tested on: Listeria monocytogenes A2132; test: Agar dilution tests; assay type: cell-based; conditions: anaerobic culture, read-out: Minimum inhibitory concentration
[9] = tested on: Clostridium perfringens A738; test: microbe, parasite or virus in culture; assay type: cell-based; conditions: A738, read-out: Minimum inhibitory concentration
[10] = tested on: Clostridium septicum A2152; test: Agar dilution tests; assay type: cell-based; conditions: anaerobic culture, read-out: Minimum inhibitory concentration
[11] = tested on: Streptococcus zocepidemicus A2144; test: Agar dilution tests; assay type: cell-based; conditions: anaerobic culture, read-out: Minimum inhibitory concentration
[12] = tested on: R-Streptococcen A2148; test: Agar dilution tests; assay type: cell-based; conditions: read-out: Minimum inhibitory concentration
[13] = tested on: Brucella suis (smooth) A2126; test: microbe, parasite or virus in culture; assay type: cell-based; conditions: read-out: Minimum inhibitory concentration
[14] = tested on: Pasteurella haemolytica A2136; test: Agar dilution tests; assay type: cell-based; conditions: Mannheimia haemolytica, anaerobic culture, read-out: Minimum inhibitory concentration
[15] = tested on: Treponema spec. A2275; test: Agar dilution tests; assay type: cell-based; conditions: anaerobic culture, read-out: Minimum inhibitory concentration
[16] = tested on: Bacillus subtilis ATCC 6633; test: Liquid dilution tests; assay type: cell-based; conditions: ATCC6633, read-out: Minimum inhibitory concentration
[17] = tested on: Bacillus subtilis ATCC 6051; test: Liquid dilution tests; assay type: cell-based; conditions: ATCC6051, read-out: Minimum inhibitory concentration
[18] = tested on: Bacillus subtilis 6346 D167; test: Liquid dilution tests; assay type: cell-based; conditions: read-out: Minimum inhibitory concentration
[19] = tested on: Bacillus subtilis 220 D178; test: Liquid dilution tests; assay type: cell-based; conditions: read-out: Minimum inhibitory concentration
[20] = tested on: Bacillus subtilis TH 10; test: Liquid dilution tests; assay type: cell-based; conditions: TH10, read-out: Minimum inhibitory concentration
[21] = tested on: Bacillus cereus D166; test: Liquid dilution tests; assay type: cell-based; conditions: read-out: Minimum inhibitory concentration
[22] = tested on: Bacillus cereus D261; test: Liquid dilution tests; assay type: cell-based; conditions: read-out: Minimum inhibitory concentration
[23] = tested on: Bacillus cereus D220; test: Liquid dilution tests; assay type: cell-based; conditions: read-out: Minimum inhibitory concentration
[24] = tested on: Bacillus cereus B569; test: Liquid dilution tests; assay type: cell-based; conditions: read-out: Minimum inhibitory concentration
[25] = tested on: Bacillus cereus TH 1; test: Liquid dilution tests; assay type: cell-based; conditions: TH1, read-out: Minimum inhibitory concentration
[26] = tested on: Bacillus thuringiensis W11; test: Liquid dilution tests; assay type: cell-based; conditions: read-out: Minimum inhibitory concentration
[27] = tested on: Bacillus mesenterium D169; test: Liquid dilution tests; assay type: cell-based; conditions: read-out: Minimum inhibitory concentration
[28] = tested on: Bacillus cereus var. mycoides; test: microbe, parasite or virus in culture; assay type: cell-based; conditions: read-out: Minimum inhibitory concentration
[29] = tested on: Streptococcus haemolyticus A266; test: Liquid dilution tests; assay type: cell-based; conditions: A266, read-out: Minimum inhibitory concentration
[30] = tested on: Streptococcus haemolyticus A2182; test: Liquid dilution tests; assay type: cell-based; conditions: read-out: Minimum inhibitory concentration
[31] = tested on: Mycoplasma hyorhinus A2230; test: Liquid dilution tests; assay type: cell-based; conditions: A2230, read-out: Minimum inhibitory concentration
[32] = tested on: Streptomyces viridochromogenes; test: Liquid dilution tests; assay type: cell-based; conditions: read-out: Minimum inhibitory concentration
[33] = Solubility; assay type: physicochemical
[34] = tested on: Mycoplasma gallisepticum; test: in vivo activity against Mycoplasma gallisepticum
[35] = growth and feed-conversion of animals being fattened; assay type: in vivo; conditions: low concentration in feed; chickens or pigs
Description: Many properties of dihydromocimycin are similar to those of mocimycin.

SMILES	MIC [1] [µg/mL]	MIC [2] [µg/mL]	MIC [3] [µg/mL]	MIC [4] [µg/mL]	MIC [5] [µg/mL]	MIC [6] [µg/mL]	MIC [7] [µg/mL]	MIC [8] [µg/mL]	MIC [9] [µg/mL]	MIC [10] [µg/mL]	MIC [11] [µg/mL]	MIC [12] [µg/mL]	MIC [13] [µg/mL]	MIC [14] [µg/mL]	MIC [15] [µg/mL]	MIC [16] [µg/mL]	MIC [17] [µg/mL]	MIC [18] [µg/mL]	MIC [19] [µg/mL]	MIC [20] [µg/mL]	further results
CC=CC=CC1OC(O)(C(CC)C(=O)NCC=CC=C(C)C(OC)C(C)C2OC(C=CC=CC=C(C)C(=O)c3c(O)cc[nH]c3=O)C(O)C2O)C(O)C(O)C1(C)C (centres unmarked) [mocimycin]	> 100	> 100	1.5 (≈ 1.88 µM)	> 100	> 100	6 (≈ 7.53 µM)	6 (≈ 7.53 µM)	6 (≈ 7.53 µM)	> 100	10 (≈ 12.5 µM)	6 (≈ 7.53 µM)	6 (≈ 7.53 µM)	0.75 (≈ 0.941 µM)	3 (≈ 3.76 µM)	30 (≈ 37.6 µM)	100 (≈ 125 µM)	100 (≈ 125 µM)	1.2 (≈ 1.51 µM)	75 (≈ 94.1 µM)	100 (≈ 125 µM)	MIC [21]: 0.6 µg/mL (≈ 0.753 µM); MIC [22]: 0.9 µg/mL (≈ 1.13 µM); MIC [23]: 1.2 µg/mL (≈ 1.51 µM); MIC [24]: 2.5 µg/mL (≈ 3.14 µM); MIC [25]: 1.8 µg/mL (≈ 2.26 µM); MIC [26]: 1.2 µg/mL (≈ 1.51 µM); MIC [27]: 100 µg/mL (≈ 125 µM); MIC [28]: 1.2 µg/mL (≈ 1.51 µM); MIC [29]: 0.45 µg/mL (≈ 0.565 µM); MIC [30]: 0.25 µg/mL (≈ 0.314 µM); MIC [31]: 1 µg/mL (≈ 1.25 µM); MIC [32]: 2.5 µg/mL (≈ 3.14 µM); solubility ([33]; carbon tetrachloride and benzene (mocimycin)): poor; solubility ([33]; chloroform, methyl isobutyl ketone, butyl acetate, ethyl acetate, acetone, methanol and alkaline solutions): good; solubility ([33]; diethyl ether, petroleum ether, water and acid solutions): insoluble; solubility ([33]; pH 9): poorly soluble; activity against Mycoplasma gallisepticum in vivo [34]: no activity; growth and feed-conversion [35]: improves the growth and the feed-conversion markedly; also recorded: advantageous growth-promoting properties
CC=CC=CC1OC(O)(C(CC)C(=O)NCC=CC=C(C)C(OC)C(C)C2OC(C=CC=CC=C(C)C(=O)C3=C(O)CCNC3=O)C(O)C2O)C(O)C(O)C1(C)C (centres unmarked) [dihydromocimycin]	> 100	> 100	< 0.75	> 100	100 (≈ 125 µM)	1.5 (≈ 1.88 µM)	6 (≈ 7.51 µM)	6 (≈ 7.51 µM)	> 100	10 (≈ 12.5 µM)	6 (≈ 7.51 µM)	3 (≈ 3.75 µM)	0.4 (≈ 0.501 µM)	1.5 (≈ 1.88 µM)	10 (≈ 12.5 µM)	50 (≈ 62.6 µM)	50 (≈ 62.6 µM)	0.9 (≈ 1.13 µM)	75 (≈ 93.9 µM)	50 (≈ 62.6 µM)	MIC [21]: 0.6 µg/mL (≈ 0.751 µM); MIC [22]: 0.6 µg/mL (≈ 0.751 µM); MIC [23]: 0.9 µg/mL (≈ 1.13 µM); MIC [24]: 1.2 µg/mL (≈ 1.5 µM); MIC [25]: 1.2 µg/mL (≈ 1.5 µM); MIC [26]: 0.9 µg/mL (≈ 1.13 µM); MIC [27]: 50 µg/mL (≈ 62.6 µM); MIC [28]: 0.45 µg/mL (≈ 0.563 µM); MIC [29]: 0.45 µg/mL (≈ 0.563 µM); MIC [30]: 0.12 µg/mL (≈ 0.15 µM); MIC [31]: 0.3 µg/mL (≈ 0.375 µM); MIC [32]: 0.9 µg/mL (≈ 1.13 µM); solubility ([33]; carbon tetrachloride and benzene (dihydromocimycin)): moderate; solubility ([33]; chloroform, methyl isobutyl ketone, ethyl acetate, butyl acetate, acetone, dioxan, methanol, ethanol, tetrahydrofuran, weakly alkaline aqueous solutions): good; solubility ([33]; diethyl ether, water, weakly acid aqueous solutions, cyclohexane and petroleum ether): insoluble; growth and feed-conversion [35]: does not show any improvement of the growth or feed-conversion; also recorded: does not show the aforesaid properties

— US4062948A, “Dihydromocimycin antibiotics” (Gist-Brocades N.V., priority 1970, dated 1977)
